Data on 21 molecules can be found in patent US10058550B2, “Methods of treating heart failure” (priority 2015, dated 2018).

The target in the experiment is human APJ receptor (Homo sapiens (Human), UniProt P35414). Description: biochemical. It counts as biochemical. The conditions noted are these: read-out: Activity hAPJ SPA EC50 IP. An outline of the steps: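 Agonist-stimulated [35S]GTPγS (0.2 nM) binding was read by SPA after 90 min at room temperature. Buffer: 20 mM HEPES pH 7.5 with 5 mM MgCl2, 200 mM NaCl, 3 μM GDP, 0.1% BSA; membranes were from a stable human APJ CHO line. EC50 values are averages of independent runs, fitted by non-linear regression.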
human APJ receptor, sequence (P35414 whole entry): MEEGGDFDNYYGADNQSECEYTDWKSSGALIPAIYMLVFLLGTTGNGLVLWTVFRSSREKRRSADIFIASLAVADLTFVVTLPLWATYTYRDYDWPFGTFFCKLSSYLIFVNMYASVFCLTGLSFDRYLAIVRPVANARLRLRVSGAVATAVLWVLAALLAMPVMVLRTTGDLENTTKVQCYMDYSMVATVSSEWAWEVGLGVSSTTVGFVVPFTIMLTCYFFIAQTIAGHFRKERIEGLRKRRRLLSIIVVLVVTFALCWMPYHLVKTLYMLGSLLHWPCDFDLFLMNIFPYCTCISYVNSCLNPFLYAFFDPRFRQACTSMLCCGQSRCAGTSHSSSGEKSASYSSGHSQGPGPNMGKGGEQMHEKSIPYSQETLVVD

`COc1cccc(-c2nnc(NS(=O)(=O)C[C@H](O)c3ccc(F)cn3)n2-c2c(OC)cccc2OC)n1` (single isomer, unassigned) [Example 316.0, (2R)—N-(4-(2,6-dimethoxyphenyl)-5-(6-methoxy-2-pyridinyl)-4H-1,2,4-triazol-3-yl)-2-(5-fluoro-2-pyridinyl)-2-hydroxyethanesulfonamide or (2S)—N-(4-(2,6-dimethoxyphenyl)-5-(6-methoxy-2-pyridinyl)-4H-1,2,4-triazol-3-yl)-2-(5-fluoro-2-pyridinyl)-2-hydroxyethanesulfonamide]: the half-maximal effective concentration (EC50) worked out at 0.5 nM. As for `COc1cccc(-c2nnc(NS(=O)(=O)C[C@H](O)c3ccc(F)cn3)n2-c2c(OC)cccc2OC)n1` (single isomer, unassigned) [Example 317.0, (2R)—N-(4-(2,6-dimethoxyphenyl)-5-(6-methoxy-2-pyridinyl)-4H-1,2,4-triazol-3-yl)-2-(5-fluoro-2-pyridinyl)-2-hydroxyethanesulfonamide or (2S)—N-(4-(2,6-dimethoxyphenyl)-5-(6-methoxy-2-pyridinyl)-4H-1,2,4-triazol-3-yl)-2-(5-fluoro-2-pyridinyl)-2-hydroxyethanesulfonamide], the EC50 was found to be 0.53 nM. Regarding `COc1cccc(-c2nnc(NS(=O)(=O)C[C@H](OC)c3ccc(F)cn3)n2-c2c(OC)cccc2OC)n1` (single isomer, unassigned) [Example 329.0, (2R)—N-(4-(2,6-dimethoxyphenyl)-5-(6-methoxy-2-pyridinyl)-4H-1,2,4-triazol-3-yl)-2-(5-fluoro-2-pyridinyl)-2-methoxyethanesulfonamide or (2S)—N-(4-(2,6-dimethoxyphenyl)-5-(6-methoxy-2-pyridinyl)-4H-1,2,4-triazol-3-yl)-2-(5-fluoro-2-pyridinyl)-2-methoxyethanesulfonamide], the EC50 amounted to 0.23 nM. On to `COc1cccc(-c2nnc(NS(=O)(=O)C[C@H](OC)c3ccc(F)cn3)n2-c2c(OC)cccc2OC)n1` (single isomer, unassigned) [Example 330.0, (2R)—N-(4-(2,6-dimethoxyphenyl)-5-(6-methoxy-2-pyridinyl)-4H-1,2,4-triazol-3-yl)-2-(5-fluoro-2-pyridinyl)-2-methoxyethanesulfonamide or (2S)—N-(4-(2,6-dimethoxyphenyl)-5-(6-methoxy-2-pyridinyl)-4H-1,2,4-triazol-3-yl)-2-(5-fluoro-2-pyridinyl)-2-methoxyethanesulfonamide], for which the EC50 came to 0.3 nM. Turning to `COc1cccc(-c2nnc(NS(=O)(=O)C[C@H](O)c3ccc(C#N)cn3)n2-c2c(OC)cccc2OC)n1` (single isomer, unassigned) [Example 332.0, (R)-2-(5-cyanopyridin-2-yl)-N-(4-(2,6-dimethoxyphenyl)-5-(6-methoxypyridin-2-yl)-4H-1,2,4-triazol-3-yl)-2-hydroxyethanesulfonamide or (S)-2-(5-cyanopyridin-2-yl)-N-(4-(2,6-dimethoxyphenyl)-5-(6-methoxypyridin-2-yl)-4H-1,2,4-triazol-3-yl)-2-hydroxyethanesulfonamide], the concentration giving a half-maximal response (EC50) amounted to 0.56 nM. For the molecule `COc1cccc(OC)c1-n1c(NS(=O)(=O)[C@@H](C)[C@@H](O)c2ccc(C#N)cc2F)nnc1-c1cncc(C)c1` (single isomer, unassigned) [Example 343.0], the EC50 turned out to be 64 nM. Regarding `COc1cccc(OC)c1-n1c(NS(=O)(=O)[C@@H](C)[C@@H](O)c2ccc(C#N)cc2F)nnc1-c1cncc(C)c1` (single isomer, unassigned) [Example 344.0], the EC50 is 0.6 nM.

In the case of `COc1cccc(OC)c1-n1c(NS(=O)(=O)[C@@H](C)[C@H](OC)c2ccc(F)cn2)nnc1-c1cncc(C)c1` (single isomer, unassigned) [Example 351.0], the half-maximal effective concentration (EC50) came to 0.87 nM. Take `COc1cccc(OC)c1-n1c(NS(=O)(=O)[C@@H](C)[C@H](OC)c2ccc(F)cn2)nnc1-c1cncc(C)c1` (single isomer, unassigned) [Example 352.0]: the EC50 stood at 0.32 nM.

Take `COc1cccc(OC)c1-n1c(NS(=O)(=O)[C@@H](C)[C@H](OC)c2ccc(F)cn2)nnc1-c1cncc(C)c1` (single isomer, unassigned) [Example 353.0]: the EC50 is 100 nM. As for `COc1cccc(OC)c1-n1c(NS(=O)(=O)[C@H](C)[C@H](O)c2ncc(F)cn2)nnc1-c1cncc(C)c1` (single isomer, unassigned) [Example 358.0, (1R,2R)—N-(4-(2,6-dimethoxyphenyl)-5-(5-methylpyridin-3-yl)-4H-1,2,4-triazol-3-yl)-1-(5-fluoropyrimidin-2-yl)-1-hydroxypropane-2-sulfonamide or (1S,2S)—N-(4-(2,6-dimethoxyphenyl)-5-(5-methylpyridin-3-yl)-4H-1,2,4-triazol-3-yl)-1-(5-fluoropyrimidin-2-yl)-1-hydroxypropane-2-sulfonamide], the EC50 turned out to be 69 nM. As for `COc1cccc(OC)c1-n1c(NS(=O)(=O)[C@H](C)[C@@H](OCCO)c2ncc(C)cn2)nnc1-c1cncc(C)c1` (single isomer, unassigned) [Example 394.0, (1S,2R)—N-(4-(2,6-dimethoxyphenyl)-5-(5-methylpyridin-3-yl)-4H-1,2,4-triazol-3-yl)-1-(2-hydroxyethoxy)-1-(5-methylpyrimidin-2-yl)propane-2-sulfonamide or (1R,2S)—N-(4-(2,6-dimethoxyphenyl)-5-(5-methylpyridin-3-yl)-4H-1,2,4-triazol-3-yl)-1-(2-hydroxyethoxy)-1-(5-methylpyrimidin-2-yl)propane-2-sulfonamide], the EC50 came to 12 nM. On to `COc1cccc(OC)c1-n1c(NS(=O)(=O)[C@H](C)[C@@H](OCCO)c2ncc(C)cn2)nnc1-c1cncc(C)c1` (single isomer, unassigned) [Example 395.0, (1S,2R)—N-(4-(2,6-dimethoxyphenyl)-5-(5-methylpyridin-3-yl)-4H-1,2,4-triazol-3-yl)-1-(2-hydroxyethoxy)-1-(5-methylpyrimidin-2-yl)propane-2-sulfonamide or (1R,2S)—N-(4-(2,6-dimethoxyphenyl)-5-(5-methylpyridin-3-yl)-4H-1,2,4-triazol-3-yl)-1-(2-hydroxyethoxy)-1-(5-methylpyrimidin-2-yl)propane-2-sulfonamide], for which the EC50 amounted to 0.11 nM.

On to `COc1cccc(OC)c1-n1c(NS(=O)(=O)[C@H](C)[C@@H](OC[C@H](C)O)c2ncc(C)cn2)nnc1-c1cncc(C)c1` (single isomer, unassigned) [Example 400.0], for which the EC50 was found to be 17 nM. In the case of `COc1cccc(OC)c1-n1c(NS(=O)(=O)[C@H](C)[C@@H](OC[C@H](C)O)c2ncc(C)cn2)nnc1-c1cncc(C)c1` (single isomer, unassigned) [Example 401.0], the EC50 was 21 nM. Regarding `COc1cccc(OC)c1-n1c(NS(=O)(=O)[C@H](C)[C@@H](OC[C@H](C)O)c2ncc(C)cn2)nnc1-c1cncc(C)c1` (single isomer, unassigned) [Example 402.0], the EC50 worked out at 0.86 nM. With `COc1cccc(OC)c1-n1c(NS(=O)(=O)[C@H](C)[C@@H](OC[C@H](C)O)c2ncc(C)cn2)nnc1-c1cncc(C)c1` (single isomer, unassigned) [Example 403.0], the EC50 is 0.21 nM. The result for `COc1cccc(OC)c1-n1c(NS(=O)(=O)[C@@H](C)[C@@H](OCCO)c2ncc(C)cn2)nnc1-c1cncc(C)c1` (single isomer, unassigned) [Example 408.0, (1S,2S)—N-(4-(2,6-dimethoxyphenyl)-5-(5-methylpyridin-3-yl)-4H-1,2,4-triazol-3-yl)-1-(2-hydroxyethoxy)-1-(5-methylpyrimidin-2-yl)propane-2-sulfonamide or (1R,2R)—N-(4-(2,6-dimethoxyphenyl)-5-(5-methylpyridin-3-yl)-4H-1,2,4-triazol-3-yl)-1-(2-hydroxyethoxy)-1-(5-methylpyrimidin-2-yl)propane-2-sulfonamide] reads 0.88 nM; that for `COc1cccc(OC)c1-n1c(NS(=O)(=O)[C@@H](C)[C@@H](OCCO)c2ncc(C)cn2)nnc1-c1cncc(C)c1` (single isomer, unassigned) [Example 409.0, (1S,2S)—N-(4-(2,6-dimethoxyphenyl)-5-(5-methylpyridin-3-yl)-4H-1,2,4-triazol-3-yl)-1-(2-hydroxyethoxy)-1-(5-methylpyrimidin-2-yl)propane-2-sulfonamide or (1R,2R)—N-(4-(2,6-dimethoxyphenyl)-5-(5-methylpyridin-3-yl)-4H-1,2,4-triazol-3-yl)-1-(2-hydroxyethoxy)-1-(5-methylpyrimidin-2-yl)propane-2-sulfonamide], 29 nM. For the molecule `COc1cccc(-c2nnc(NS(=O)(=O)[C@H](C)[C@@H](OCCO)c3ncc(C)cn3)n2-c2c(OC)cccc2OC)n1` (single isomer, unassigned) [Example 415.0, (1S,2R)—N-(4-(2,6-dimethoxyphenyl)-5-(6-methoxypyridin-2-yl)-4H-1,2,4-triazol-3-yl)-1-(2-hydroxyethoxy)-1-(5-methylpyrimidin-2-yl)propane-2-sulfonamide or (1R,2S)—N-(4-(2,6-dimethoxyphenyl)-5-(6-methoxypyridin-2-yl)-4H-1,2,4-triazol-3-yl)-1-(2-hydroxyethoxy)-1-(5-methylpyrimidin-2-yl)propane-2-sulfonamide], the EC50 was 8.9 nM. `COc1cccc(-c2nnc(NS(=O)(=O)[C@H](C)[C@@H](OCCO)c3ncc(C)cn3)n2-c2c(OC)cccc2OC)n1` (single isomer, unassigned) [Example 416.0, (1S,2R)—N-(4-(2,6-dimethoxyphenyl)-5-(6-methoxypyridin-2-yl)-4H-1,2,4-triazol-3-yl)-1-(2-hydroxyethoxy)-1-(5-methylpyrimidin-2-yl)propane-2-sulfonamide or (1R,2S)—N-(4-(2,6-dimethoxyphenyl)-5-(6-methoxypyridin-2-yl)-4H-1,2,4-triazol-3-yl)-1-(2-hydroxyethoxy)-1-(5-methylpyrimidin-2-yl)propane-2-sulfonamide]: the 50% effective concentration (EC50) was 0.26 nM.

One may read the EC50 as the midpoint of the concentration-response curve.
